Assay results: publication PMC5218480 (PLoS ONE, 2017)

System: MV-4-11 cells
Assay: Gene expression microarray analysis (Affymetrix PrimeView) and GSEA
Assay type: cell-based, human
Design: RFU PODN (11730768_x_at) / Fold change /veh PODN (11730768_x_at) / RFU LINC00158 (11744669_a_at) / Fold change /veh LINC00158 (11744669_a_at) / RFU DUSP10 (11751237_a_at) / Fold change /veh DUSP10 (11751237_a_at) / RFU ID3 (11757404_x_at) / Fold change /veh ID3 (11757404_x_at) / RFU PLEKHG5 (11737974_s_at) / Fold change /veh PLEKHG5 (11737974_s_at) / RFU LRRC4B (11730491_at) / Fold change /veh LRRC4B (11730491_at) / RFU GIMAP4 (11747438_a_at) / Fold change /veh GIMAP4 (11747438_a_at) / RFU KRT8 (11758183_x_at) / Fold change /veh KRT8 (11758183_x_at) / RFU CNN1 (11734310_a_at) / Fold change /veh CNN1 (11734310_a_at) / RFU VPS37D (11726825_at) / Fold change /veh VPS37D (11726825_at) / RFU C10orf10 (11716522_x_at) / Fold change /veh C10orf10 (11716522_x_at) / RFU KIR2DL2 /// KIR2DL4 /// KIR2DL5A /// KIR2DL5B /// KIR2DS1 /// KIR2DS2 /// KIR2DS3 /// KIR2DS4 /// KIR3DL3 /// KIR3DL3 /// KIR3DS1 (11738374_at) / Fold change /veh KIR2DL2 /// KIR2DL4 /// KIR2DL5A /// KIR2DL5B /// KIR2DS1 /// KIR2DS2 /// KIR2DS3 /// KIR2DS4 /// KIR3DL3 /// KIR3DL3 /// KIR3DS1 (11738374_at) / RFU C1QL1 (11718748_at) / Fold change /veh C1QL1 (11718748_at) / RFU TMPRSS4 (11747572_a_at) / Fold change /veh TMPRSS4 (11747572_a_at) / RFU HAMP (11756126_x_at) / Fold change /veh HAMP (11756126_x_at) / RFU RNFT2 (11725882_a_at) / Fold change /veh RNFT2 (11725882_a_at) / RFU NR4A2 (11747474_a_at) / Fold change /veh NR4A2 (11747474_a_at) / RFU ABCC12 (11746883_a_at) / Fold change /veh ABCC12 (11746883_a_at) / RFU TMEM136 (11760407_x_at) / Fold change /veh TMEM136 (11760407_x_at) / RFU CLDN22 /// WWC2 (11732394_at) / Fold change /veh CLDN22 /// WWC2 (11732394_at) / RFU HLA-DPB1 (11760878_x_at) / Fold change /veh HLA-DPB1 (11760878_x_at) / RFU SPINT1 (11716480_a_at) / Fold change /veh SPINT1 (11716480_a_at) / RFU GAP43 (11754022_s_at) / Fold change /veh GAP43 (11754022_s_at) / RFU A4GNT (11735810_at) / Fold change /veh A4GNT (11735810_at) / RFU PRB3 (11715151_x_at) / Fold change /veh PRB3 (11715151_x_at) / RFU TUBB4B (11761932_at) / Fold change /veh TUBB4B (11761932_at) / RFU CAPN14 (11732068_a_at) / Fold change /veh CAPN14 (11732068_a_at) / RFU TMCC2 (11721928_a_at) / Fold change /veh TMCC2 (11721928_a_at) / RFU IRGQ (11745062_a_at) / Fold change /veh IRGQ (11745062_a_at) / RFU FAM174B (11720279_a_at) / Fold change /veh FAM174B (11720279_a_at) / RFU TMPRSS4 (11748680_a_at) / Fold change /veh TMPRSS4 (11748680_a_at) / RFU FAM212B (11763350_a_at) / Fold change /veh FAM212B (11763350_a_at) / RFU PLEKHG5 (11743358_a_at) / Fold change /veh PLEKHG5 (11743358_a_at) / RFU ZSCAN30 (11745921_a_at) / Fold change /veh ZSCAN30 (11745921_a_at) / RFU CMKLR1 (11741424_a_at) / Fold change /veh CMKLR1 (11741424_a_at) / RFU LOC101060620 /// MAPK8IP1 (11723275_at) / Fold change /veh LOC101060620 /// MAPK8IP1 (11723275_at) / RFU SPTSSB (11747773_x_at) / Fold change /veh SPTSSB (11747773_x_at) / RFU PRSS12 (11739890_at) / Fold change /veh PRSS12 (11739890_at) / RFU BIN1 (11741810_x_at) / Fold change /veh BIN1 (11741810_x_at) / RFU WNT11 (11732464_a_at) / Fold change /veh WNT11 (11732464_a_at) / RFU C10orf10 (11716521_a_at) / Fold change /veh C10orf10 (11716521_a_at) / RFU C5orf56 (11738089_at) / Fold change /veh C5orf56 (11738089_at) / RFU CYB561 (11721691_x_at) / Fold change /veh CYB561 (11721691_x_at) / RFU ANKRD19P (11752326_a_at) / Fold change /veh ANKRD19P (11752326_a_at) / RFU OR2T12 /// OR2T33 /// OR2T8 (11738714_s_at) / Fold change /veh OR2T12 /// OR2T33 /// OR2T8 (11738714_s_at) / RFU VCAN (11748164_a_at) / Fold change /veh VCAN (11748164_a_at) / RFU JSRP1 (11732532_at) / Fold change /veh JSRP1 (11732532_at) / RFU KRTAP10-11 (11738290_x_at) / Fold change /veh KRTAP10-11 (11738290_x_at) / RFU MYO3A (11730013_a_at) / Fold change /veh MYO3A (11730013_a_at) / RFU EBF3 (11725865_a_at) / Fold change /veh EBF3 (11725865_a_at) / RFU CAMK2N1 (11719241_x_at) / Fold change /veh CAMK2N1 (11719241_x_at) / RFU C5orf56 (11738088_a_at) / Fold change /veh C5orf56 (11738088_a_at) / RFU OLFML3 (11715873_a_at) / Fold change /veh OLFML3 (11715873_a_at) / RFU LOC100653217 /// NTM (11731650_a_at) / Fold change /veh LOC100653217 /// NTM (11731650_a_at) / RFU MAPK11 (11762145_a_at) / Fold change /veh MAPK11 (11762145_a_at) / RFU FIZ1 (11724087_x_at) / Fold change /veh FIZ1 (11724087_x_at) / RFU OASL (11726364_x_at) / Fold change /veh OASL (11726364_x_at) / RFU SOX15 (11748057_x_at) / Fold change /veh SOX15 (11748057_x_at) / RFU CD79A (11719716_a_at) / Fold change /veh CD79A (11719716_a_at) / RFU HIST1H1D (11736915_at) / Fold change /veh HIST1H1D (11736915_at) / RFU CASKIN2 (11723855_a_at) / Fold change /veh CASKIN2 (11723855_a_at) / RFU LOC730098 (11760151_x_at) / Fold change /veh LOC730098 (11760151_x_at) / RFU OR4N2 (11742367_at) / Fold change /veh OR4N2 (11742367_at) / RFU PRRT2 (11749266_a_at) / Fold change /veh PRRT2 (11749266_a_at) / RFU SNX32 (11753110_a_at) / Fold change /veh SNX32 (11753110_a_at) / RFU CDHR5 (11726645_a_at) / Fold change /veh CDHR5 (11726645_a_at) / RFU RCAN1 (11760418_a_at) / Fold change /veh RCAN1 (11760418_a_at) / RFU FAM167A (11723789_a_at) / Fold change /veh FAM167A (11723789_a_at) / RFU FAM26E (11764081_at) / Fold change /veh FAM26E (11764081_at) / RFU ISYNA1 (11749810_s_at) / Fold change /veh ISYNA1 (11749810_s_at) / RFU ACY1 (11761880_at) / Fold change /veh ACY1 (11761880_at) / RFU 11764098_at / Fold change /veh 11764098_at / RFU SAMD14 (11745864_x_at) / Fold change /veh SAMD14 (11745864_x_at) / RFU NPB (11741838_a_at) / Fold change /veh NPB (11741838_a_at) / RFU TMPRSS6 (11731388_a_at) / Fold change /veh TMPRSS6 (11731388_a_at) / RFU KRTAP10-2 (11738614_at) / Fold change /veh KRTAP10-2 (11738614_at) / RFU ARHGAP8 /// PRR5-ARHGAP8 (11727945_x_at) / Fold change /veh ARHGAP8 /// PRR5-ARHGAP8 (11727945_x_at) / RFU KRTAP5-7 /// NADSYN1 (11734609_at) / Fold change /veh KRTAP5-7 /// NADSYN1 (11734609_at) / RFU RASL12 (11751679_a_at) / Fold change /veh RASL12 (11751679_a_at) / RFU CDKN2B (11736163_a_at) / Fold change /veh CDKN2B (11736163_a_at) / RFU PRF1 (11729649_at) / Fold change /veh PRF1 (11729649_at) / RFU, ZNF638 /// ZNF638-IT1 / Fold change vs veh, ZNF638 /// ZNF638-IT1 / RFU, PANK3 / Fold change vs veh, PANK3 / RFU, SH3YL1 / Fold change vs veh, SH3YL1 / RFU, ZEB2 / Fold change vs veh, ZEB2 / RFU, NRIP1 / Fold change vs veh, NRIP1 / RFU, PTTG1IP / Fold change vs veh, PTTG1IP / RFU, CAPN2 / Fold change vs veh, CAPN2 / RFU, MED14 / Fold change vs veh, MED14 / RFU, SNORA58 / Fold change vs veh, SNORA58 / RFU, C1orf63 / Fold change vs veh, C1orf63 / RFU, LRRFIP1 / Fold change vs veh, LRRFIP1 / RFU, NDUFAF7 / Fold change vs veh, NDUFAF7 / RFU, SLC12A2 / Fold change vs veh, SLC12A2 / RFU, IBTK / Fold change vs veh, IBTK / RFU, ESF1 / Fold change vs veh, ESF1 / Fold change vs veh, TMEM50B / RFU, TAOK1 / Fold change vs veh, TAOK1 / RFU, ACBD3 / Fold change vs veh, ACBD3 / RFU, TMA16 / Fold change vs veh, TMA16 / RFU, RWDD3 / Fold change vs veh, RWDD3 / RFU, BCAT1 / Fold change vs veh, BCAT1 / RFU, EDEM3 / Fold change vs veh, EDEM3 / RFU, TMEM33 / Fold change vs veh, TMEM33 / RFU, WDR75 / Fold change vs veh, WDR75 / RFU, AHCTF1 / Fold change vs veh, AHCTF1 / RFU, TFRC / Fold change vs veh, TFRC / RFU, ZDHHC17 / Fold change vs veh, ZDHHC17 / RFU, NOM1 / Fold change vs veh, NOM1 / RFU, ARL8B / Fold change vs veh, ARL8B / RFU, ZBTB11 / Fold change vs veh, ZBTB11 / RFU, TAMM41 / Fold change vs veh, TAMM41 / RFU, KIAA1704 /// LOC100996395 / Fold change vs veh, KIAA1704 /// LOC100996395 / RFU, ING1 / Fold change vs veh, ING1 / RFU, TRMT61B / Fold change vs veh, TRMT61B / RFU, FUBP3 / Fold change vs veh, FUBP3 / RFU, TP53 / Fold change vs veh, TP53 / RFU, TNKS2 / Fold change vs veh, TNKS2 / RFU, ZFP14 / Fold change vs veh, ZFP14 / RFU, ACTR2 / Fold change vs veh, ACTR2 / RFU, PPP3R1 / Fold change vs veh, PPP3R1 / RFU, PIK3R1 / Fold change vs veh, PIK3R1 / RFU, HNRNPA1 / Fold change vs veh, HNRNPA1 / RFU, RNF170 / Fold change vs veh, RNF170 / RFU, ZNF28 / Fold change vs veh, ZNF28 / RFU, RNGTT / Fold change vs veh, RNGTT / RFU, OGT / Fold change vs veh, OGT / RFU, BRD1 / Fold change vs veh, BRD1 / RFU, MARS / Fold change vs veh, MARS / RFU, ZNF655 / Fold change vs veh, ZNF655 / RFU, FAHD1 / Fold change vs veh, FAHD1 / RFU, BDP1 / Fold change vs veh, BDP1 / RFU, LRRCC1 / Fold change vs veh, LRRCC1 / RFU, ARID1A / Fold change vs veh, ARID1A / RFU, ZNF146 / Fold change vs veh, ZNF146 / RFU, ZNF330 / Fold change vs veh, ZNF330 / RFU, GPN3 / Fold change vs veh, GPN3 / RFU, C9orf123 / Fold change vs veh, C9orf123 / RFU, N4BP2L2 / Fold change vs veh, N4BP2L2 / RFU, ARFIP1 / Fold change vs veh, ARFIP1 / RFU, FAM179B / Fold change vs veh, FAM179B / RFU, BCL10 / Fold change vs veh, BCL10 / RFU, UHRF1BP1L / Fold change vs veh, UHRF1BP1L / RFU, BET1 / Fold change vs veh, BET1 / RFU, CNOT2 / Fold change vs veh, CNOT2 / RFU, ZNF268 / Fold change vs veh, ZNF268 / Fold change vs veh, ZNF507 / RFU, DGCR2 / Fold change vs veh, DGCR2 / RFU, WDSUB1 / Fold change vs veh, WDSUB1 / Fold change vs veh, HSP90B1 /// MIR3652 / RFU, ADSS / Fold change vs veh, ADSS / RFU, GK / Fold change vs veh, GK / RFU, ZNF148 / Fold change vs veh, ZNF148 / RFU, TAF9 / Fold change vs veh, TAF9 / RFU, SLC1A5 / Fold change vs veh, SLC1A5 / RFU, SLMO2 / Fold change vs veh, SLMO2 / RFU, ABCC4 / Fold change vs veh, ABCC4 / RFU, LOC101060439 /// RAP1B / Fold change vs veh, LOC101060439 /// RAP1B / RFU, RFX7 / Fold change vs veh, RFX7 / RFU, GTPBP10 / Fold change vs veh, GTPBP10 / RFU, CNEP1R1 / Fold change vs veh, CNEP1R1 / RFU, BIVM-ERCC5 /// ERCC5 / Fold change vs veh, BIVM-ERCC5 /// ERCC5 / RFU, ILF3 / Fold change vs veh, ILF3 / RFU 11762660_at / Fold change /veh 11762660_at / RFU VCAN (11757783_s_at) / Fold change /veh VCAN (11757783_s_at) / RFU DDX43 (11728927_at) / Fold change /veh DDX43 (11728927_at) / RFU KRT8 (11758188_x_at) / Fold change /veh KRT8 (11758188_x_at) / RFU NKD1 (11759106_at) / Fold change /veh NKD1 (11759106_at) / RFU SRD5A1 (11742802_a_at) / Fold change /veh SRD5A1 (11742802_a_at) / RFU TPSAB1 /// TPSB2 (11721975_s_at) / Fold change /veh TPSAB1 /// TPSB2 (11721975_s_at) / RFU GSTM3 (11746129_a_at) / Fold change /veh GSTM3 (11746129_a_at) / RFU IL23R (11737362_x_at) / Fold change /veh IL23R (11737362_x_at) / RFU TMEM51 (11727254_a_at) / Fold change /veh TMEM51 (11727254_a_at) / RFU PIWIL2 (11732686_x_at) / Fold change /veh PIWIL2 (11732686_x_at) / RFU ORM1 (11744905_x_at) / Fold change /veh ORM1 (11744905_x_at) / RFU CCDC152 (11743942_at) / Fold change /veh CCDC152 (11743942_at) / RFU ECM1 (11717891_a_at) / Fold change /veh ECM1 (11717891_a_at) / RFU IL23R (11748794_a_at) / Fold change /veh IL23R (11748794_a_at) / RFU TNFAIP8L3 (11732012_x_at) / Fold change /veh TNFAIP8L3 (11732012_x_at) / RFU MBOAT4 (11741988_at) / Fold change /veh MBOAT4 (11741988_at) / RFU 11764193_at / Fold change /veh 11764193_at / RFU TMEM53 (11763286_at) / Fold change /veh TMEM53 (11763286_at) / RFU MAGEB2 (11727129_at) / Fold change /veh MAGEB2 (11727129_at) / RFU TMEM200A (11744735_a_at) / Fold change /veh TMEM200A (11744735_a_at) / RFU CCDC152 (11751479_a_at) / Fold change /veh CCDC152 (11751479_a_at) / RFU FAM211A (11726209_a_at) / Fold change /veh FAM211A (11726209_a_at) / RFU RGS16 (11746705_a_at) / Fold change /veh RGS16 (11746705_a_at) / RFU VCAN (11755009_s_at) / Fold change /veh VCAN (11755009_s_at) / RFU RHOB (11743442_s_at) / Fold change /veh RHOB (11743442_s_at) / RFU RGS16 (11720943_a_at) / Fold change /veh RGS16 (11720943_a_at) / RFU RGS16 (11720944_at) / Fold change /veh RGS16 (11720944_at) / RFU, VPS4B / Fold change vs veh, VPS4B / RFU, CREB1 / Fold change vs veh, CREB1 / RFU, DNAJC13 / Fold change vs veh, DNAJC13 / RFU, GNAQ / Fold change vs veh, GNAQ / RFU, CDK5R1 / Fold change vs veh, CDK5R1 / RFU, ZRANB3 / Fold change vs veh, ZRANB3 / RFU, CUL4A / Fold change vs veh, CUL4A / RFU, CCNY / Fold change vs veh, CCNY / RFU, UFL1 / Fold change vs veh, UFL1 / RFU, COG3 / Fold change vs veh, COG3 / RFU, DIAPH2 / Fold change vs veh, DIAPH2 / RFU, SKA2 / Fold change vs veh, SKA2 / RFU, AFF3 / Fold change vs veh, AFF3 / RFU, LMF1 / Fold change vs veh, LMF1 / RFU, IPO11 / Fold change vs veh, IPO11 / RFU, DFFB / Fold change vs veh, DFFB / RFU, FOXP1 / Fold change vs veh, FOXP1 / RFU, CARD8 / Fold change vs veh, CARD8 / RFU, STRN3 / Fold change vs veh, STRN3 / RFU, ADK / Fold change vs veh, ADK / RFU, RASSF2 / Fold change vs veh, RASSF2 / RFU, WIPF1 / Fold change vs veh, WIPF1 / RFU, LARP1B / Fold change vs veh, LARP1B / RFU, RASA1 / Fold change vs veh, RASA1 / RFU, RB1 / Fold change vs veh, RB1 / RFU, PPFIA1 / Fold change vs veh, PPFIA1 / RFU, MAT2A / Fold change vs veh, MAT2A / RFU, CCT5 / Fold change vs veh, CCT5 / RFU, WDR92 / Fold change vs veh, WDR92 / RFU, CUX1 / Fold change vs veh, CUX1 / RFU, TTC7A / Fold change vs veh, TTC7A / RFU, TMEM135 / Fold change vs veh, TMEM135 / RFU, DEPTOR / Fold change vs veh, DEPTOR / RFU, CPM / Fold change vs veh, CPM / RFU, DNAJB6 / Fold change vs veh, DNAJB6 / RFU, CACNA2D3 / Fold change vs veh, CACNA2D3 / RFU, DTX4 / Fold change vs veh, DTX4 / RFU, TFCP2 / Fold change vs veh, TFCP2 / RFU, GMCL1 /// GMCL1P1 / Fold change vs veh, GMCL1 /// GMCL1P1 / RFU, AEBP2 / Fold change vs veh, AEBP2 / RFU, SNHG1 /// SNORD22 /// SNORD25 /// SNORD26 /// SNORD27 /// SNORD28 /// SNORD29 /// SNORD31 / Fold change vs veh, SNHG1 /// SNORD22 /// SNORD25 /// SNORD26 /// SNORD27 /// SNORD28 /// SNORD29 /// SNORD31 / Fold change (Aza/veh), C12orf56 (ProbeSet 11735607_a_at) / Fold change (ACY-1035/veh), C12orf56 (ProbeSet 11735607_a_at) / Fold change (Aza/veh), FGFR1OP (ProbeSet 11751329_s_at) / Fold change (ACY-1035/veh), FGFR1OP (ProbeSet 11751329_s_at) / Fold change (Aza/veh), VPS36 (ProbeSet 11739960_a_at) / Fold change (ACY-1035/veh), VPS36 (ProbeSet 11739960_a_at) / RFU SYPL1 (11715823_x_at) / Fold change /veh SYPL1 (11715823_x_at) / RFU IGFBP7 (11715501_s_at) / Fold change /veh IGFBP7 (11715501_s_at) / RFU REEP3 (11722064_at) / Fold change /veh REEP3 (11722064_at) / RFU IGLL1 (11728026_x_at) / Fold change /veh IGLL1 (11728026_x_at): dose or concentration left out as unconfirmed
Conditions: ProbeSet 11716931_at; LIST B

## Nc1ncn([C@@H]2O[C@H](CO)[C@@H](O)[C@H]2O)c(=O)n1 [azacitidine]
  RFU, DGCR2: 177.81 RFU
